Data from BindingDB's records for doi:10.1016/j.bmcl.2009.03.086 (The Scripps Research Institute, 2009).

Columns and labels:
[1] = target: Mitogen-activated protein kinase 8 (Homo sapiens, UniProt P45983); experiment: Homogeneous Time-resolved Fluorescence Assay
Method: (§1) Biochemical IC50s for JNK were determined using HTRF. In each assay the phosphor-Thr71-ATF-2 product was detected using a Europium-cryptate labeled anti-phospho-Thr71-ATF-2 antibody. Streptavidin-allophycocyanin-XL was used as the acceptor. A 10-point dose-response curve for each compound was generated in duplicate and data was fit to a four parameter logistic.

[2] = target: Isoform Alpha-1 of Mitogen-activated protein kinase 10 (Alpha-1) 9-402] (Homo sapiens, UniProt P53779); experiment: Homogeneous Time-resolved Fluorescence Assay; conditions: pH 7; 22 °C
Sequence of Isoform Alpha-1 of Mitogen-activated protein kinase 10 (Alpha-1) 9-402] (P53779 39-402): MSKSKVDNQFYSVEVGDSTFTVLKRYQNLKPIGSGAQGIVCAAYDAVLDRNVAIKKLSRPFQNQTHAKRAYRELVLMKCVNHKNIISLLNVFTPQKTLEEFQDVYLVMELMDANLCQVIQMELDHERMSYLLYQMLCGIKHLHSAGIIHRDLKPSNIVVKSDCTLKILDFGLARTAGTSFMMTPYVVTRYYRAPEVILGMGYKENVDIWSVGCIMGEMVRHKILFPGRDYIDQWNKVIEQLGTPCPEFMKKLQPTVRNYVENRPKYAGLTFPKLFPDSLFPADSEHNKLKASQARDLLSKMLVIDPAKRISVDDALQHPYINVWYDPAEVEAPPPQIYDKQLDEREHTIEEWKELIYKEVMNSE
Method: as §1

Sequence of Mitogen-activated protein kinase 8 (P45983 whole entry, canonical isoform): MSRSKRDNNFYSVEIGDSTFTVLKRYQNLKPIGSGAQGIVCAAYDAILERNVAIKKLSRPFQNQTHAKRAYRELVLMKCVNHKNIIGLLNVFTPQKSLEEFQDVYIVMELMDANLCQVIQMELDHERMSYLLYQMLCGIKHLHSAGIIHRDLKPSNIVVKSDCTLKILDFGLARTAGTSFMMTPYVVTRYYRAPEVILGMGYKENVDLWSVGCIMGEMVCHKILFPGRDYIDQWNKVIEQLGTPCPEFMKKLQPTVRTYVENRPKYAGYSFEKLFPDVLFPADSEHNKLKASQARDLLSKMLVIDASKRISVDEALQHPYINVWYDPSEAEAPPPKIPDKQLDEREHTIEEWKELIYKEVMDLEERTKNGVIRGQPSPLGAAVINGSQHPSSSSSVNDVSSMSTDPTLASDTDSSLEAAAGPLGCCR

Work on `C=CCN1CCN(c2c(Cl)cccc2NC(=O)c2ccc(Br)o2)CC1` [piperazine amide, 6a] yielded an IC50 [1] of 380 nM and an IC50 [2] of 1260 nM.
